Reference: patent US10508285B2, “Method for screening of genes conferring increased tolerance to herbicides” (priority 2014, dated 2019)

System: Protoporphyrinogen IX Oxidase (PPO) R128L
Format: cell-based, Amaranthus tuberculatus

Compound	Tolerance factor
C#CCN1C(=O)C(F)(F)Oc2cc(F)c(-n3c(=O)n(C)c(=S)n(C)c3=O)cc21 [BAS 850H]	28.7
CC(C)N(C)S(=O)(=O)NC(=O)c1cc(-n2c(=O)cc(C(F)(F)F)n(C)c2=O)c(F)cc1Cl [Saflufenacil]	170
